Test results published in patent US20150197497A1, “SELECTIVE INHIBITORS OF HISTONE DEACETYLASE ISOFORM 6 AND METHODS THEREOF” (DANA-FARBER CANCER INSTITUTE, INC., priority 2011, published 2015).

Assays:
HDAC2 = molecular target: T1, HDAC2 (Homo sapiens, UniProt Q92769); experiment: In vitro HDAC enzyme inhibition assay, HDAC2; type: biochemical; details: for HDAC2/HDAC6 in vitro selectivity: ratio of IC50 for HDAC2 relative to that of HDAC6; for IC50: recombinant full-length HDAC2, substrate MAZ1600 22 μM
T1 construct: Recombinant, full-length HDAC protein (BPS Biosciences) was incubated with fluorophore conjugated substrate; purchased BPS Biosciences
T1 sequence (Q92769 whole entry): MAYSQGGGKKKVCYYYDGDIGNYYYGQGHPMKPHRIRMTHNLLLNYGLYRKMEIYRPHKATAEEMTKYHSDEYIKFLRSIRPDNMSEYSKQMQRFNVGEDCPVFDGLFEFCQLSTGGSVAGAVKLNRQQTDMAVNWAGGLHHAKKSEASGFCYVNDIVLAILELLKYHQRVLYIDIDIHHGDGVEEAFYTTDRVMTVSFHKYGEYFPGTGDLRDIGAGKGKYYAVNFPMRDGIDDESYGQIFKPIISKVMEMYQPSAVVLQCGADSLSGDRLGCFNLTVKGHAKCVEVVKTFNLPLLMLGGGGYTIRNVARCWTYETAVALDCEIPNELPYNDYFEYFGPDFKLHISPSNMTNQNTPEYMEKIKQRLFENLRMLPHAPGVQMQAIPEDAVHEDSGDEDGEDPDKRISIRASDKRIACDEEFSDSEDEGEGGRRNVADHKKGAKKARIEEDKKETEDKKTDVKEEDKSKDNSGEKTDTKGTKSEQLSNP
Protocol: (§1) In vitro Histone Deacetylase enzyme assays were performed using Class I (isoforms: HDAC1, HDAC2, HDAC3 and HDAC8), class IIa (isoforms: HDAC4, HDAC5, HDAC7 and HDAC9) and class IIb (isoform HDAC6).
(§2) HDAC activities were determined in vitro with an optimized homogenous assay performed in a 384-well plate. Recombinant, full-length HDAC protein (BPS Biosciences) was incubated with fluorophore conjugated substrate, MAZ1600 and MAZ1675, at Km=[S]. […] Reactions were performed in assay buffer (50 mM HEPES, 100 mM KCl, 0.001% Tween-20, 0.05% BSA, 200 μM tris(2-carboxyethyl)phosphine (TCEP), pH 7.4) and followed for fluorogenic release of 7-amino-4-methylcoumarin from substrate upon deacetylase and trypsin enzymatic activity. Fluorescence measurements were obtained every five minutes using a multilabel plate reader and plate-stacker (Envision; Perkin-Elmer). Each plate was analyzed by plate repeat, and the first derivative within the linear range was imported into analytical software (Spotfire DecisionSite and GraphPad Prism). Replicate experimental data from incubations with inhibitor were normalized to controls.

HDAC7 = molecular target: T2, HDAC7 (Homo sapiens, UniProt Q8WUI4); experiment: In vitro HDAC enzyme inhibition assay, HDAC7; type: biochemical; details: for HDAC7/HDAC6 in vitro selectivity: ratio of IC50 for HDAC7 relative to that of HDAC6; for IC50: recombinant full-length HDAC7, substrate MAZ1675 22 μM
T2 construct: Recombinant, full-length HDAC protein (BPS Biosciences) was incubated with fluorophore conjugated substrate; purchased BPS Biosciences
T2 sequence (Q8WUI4 1-952): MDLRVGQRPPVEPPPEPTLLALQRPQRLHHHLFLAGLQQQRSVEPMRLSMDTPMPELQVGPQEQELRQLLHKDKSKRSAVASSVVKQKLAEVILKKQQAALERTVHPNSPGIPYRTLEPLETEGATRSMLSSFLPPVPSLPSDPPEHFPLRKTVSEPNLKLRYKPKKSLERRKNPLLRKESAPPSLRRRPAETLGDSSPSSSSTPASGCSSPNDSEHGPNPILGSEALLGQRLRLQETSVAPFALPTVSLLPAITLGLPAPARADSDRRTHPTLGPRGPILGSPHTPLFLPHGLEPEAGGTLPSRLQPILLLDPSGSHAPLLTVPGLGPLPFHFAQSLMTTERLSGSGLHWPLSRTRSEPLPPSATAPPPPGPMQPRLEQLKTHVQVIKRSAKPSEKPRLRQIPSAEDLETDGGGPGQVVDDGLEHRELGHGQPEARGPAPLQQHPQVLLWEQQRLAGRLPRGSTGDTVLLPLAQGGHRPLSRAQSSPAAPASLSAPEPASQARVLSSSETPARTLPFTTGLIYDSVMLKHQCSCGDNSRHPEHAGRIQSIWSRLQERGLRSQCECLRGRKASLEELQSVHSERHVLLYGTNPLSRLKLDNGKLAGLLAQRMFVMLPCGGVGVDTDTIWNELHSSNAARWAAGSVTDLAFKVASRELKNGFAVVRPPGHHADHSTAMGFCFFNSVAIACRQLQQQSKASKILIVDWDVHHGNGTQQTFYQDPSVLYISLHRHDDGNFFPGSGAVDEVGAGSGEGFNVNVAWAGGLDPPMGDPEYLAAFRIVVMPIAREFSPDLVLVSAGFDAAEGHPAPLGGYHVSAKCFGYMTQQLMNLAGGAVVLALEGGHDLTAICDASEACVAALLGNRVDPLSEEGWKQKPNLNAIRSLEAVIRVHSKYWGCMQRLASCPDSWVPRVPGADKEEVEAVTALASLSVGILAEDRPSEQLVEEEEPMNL
Protocol: as §1, §2

Row | SMILES | HDAC2/HDAC6 in vitro selectivity (HDAC2) | IC50 (HDAC2) | HDAC7/HDAC6 in vitro selectivity (HDAC7) | IC50 (HDAC7)
1 | O=C(NO)c1ccc(Cn2c(=O)[nH]c3cc(F)ccc32)cc1 [B3, 4-((5-fluoro-2-oxo-2,3-dihydro-1H-benzo[d]imidazol-1-yl)methyl)N-hydroxybenzamide] | 3002 | 64.7 nM | 17021 | 367 nM
2 | O=C(NO)c1ccc(Cn2c(C(F)(F)F)nc3cc(Br)ccc32)cc1 [A5, 4-((5-bromo-2-(trifluoromethyl)-1H-benzo[d]imidazol-l-yl)methyl)-N-hydroxybenzamide] | 471 | 146 nM | 735 | 228 nM
3 | O=C(NO)c1ccc(Cn2c(C(F)(F)F)nc3cc(F)ccc32)cc1 [A3, 4-((5-fluoro-2-(trifluoromethyl)-1H-benzo[d]imidazol-1-yl)methyl)-N-hydroxybenzamide] | 844 | 484 nM | 484 | 278 nM
4 | COc1ccc2c(c1)nc(C(F)(F)F)n2Cc1ccc(C(=O)NO)cc1 [A6, N-hydroxy-4-((5-methoxy-2-(trifluoromethyl)-1H-benzo[d]imidazol-1-yl)methyl)benzamide] | 522 | 205 nM | 1058 | 414 nM
5 | O=C(NO)c1ccc(Cn2cnc3ccccc32)cc1 [A7] | 1853 | 181 nM | 2606 | 255 nM
6 | O=C(NO)c1ccc(Cn2nnc3cc(F)ccc32)cc1 [C3, 4-((5-fluoro-1H-benzo[d][1,2,3]triazol-1-yl)methyl)-N-hydroxybenzamide] | 10108 | 266 nM | 21126 | 555 nM
7 | O=C(NO)c1ccc(Cn2nnc3cc(Cl)ccc32)cc1 [C4, 4-((5-chloro-1H-benzo[d][1,2,3]triazol-1-yl)methyl)-N-hydroxybenzamide] | 2562 | 141 nM | 7608 | 420 nM
8 | O=C(NO)c1ccc(Cn2c(=O)[nH]c3cc(C(F)(F)F)ccc32)cc1 [B6, N-hydroxy-4-((2-oxo-5-(trifluoromethyl)-2,3-dihydro-1H-benzo[d]imidazol-1-yl)methyl)benzamide] | 1754 | 10.9 nM | 38222 | 237 nM
9 | O=C(NO)c1ccc(Cn2nnc3ccccc32)cc1 [C1, 4-((1H-benzo[d][1,2,3]triazol-1-yl)methyl)-N-hydroxybenzamide] | 4884 | 78.1 nM | 9286 | 148 nM
10 | O=C(NO)c1ccc(Cn2c(C(F)(F)F)nc3ccccc32)cc1 [A1, N-hydroxy-4-((2-(trifluoromethyl)-1H-benzo[d]imidazol-1-yl)methyl)benzamide] | 1230 | 581 nM | 255 | 121 nM
11 | O=C(NO)c1ccc(Cn2c(=O)[nH]c3cc(Br)ccc32)cc1 [B5, 4-((5-bromo-2-oxo-2,3-dihydro-1H-benzo[d]imidazol-1-yl)methyl)-N-hydroxybenzamide] | 444 | 9.09 nM | 9297 | 190 nM
12 | O=C(NO)c1ccc(Cn2c(C(F)(F)F)nc3cc(Cl)ccc32)cc1 [A4, 4-((5-chloro-2-(trifluoromethyl)-1H-benzo[d]imidazol-1-yl)methyl)-N-hydroxybenzamide] | 259 | 300 nM | 323 | 374 nM
